Where two headings read alike, the source gives them in different places.
Columns and labels:
[1] = system: CHOP; assay: CHOP expression in neuronal cells under endoplasmic reticulum stress (RT-PCR); format: cell-based, Rat; conditions: pretreatment 1 h, tunicamycin 0.16 μM 24 h
Method: (§1) Neuronal cells were prepared as follows. PC12 cells were reconstituted by seeding at 2×10^6 cells/flask to a collagen IV-coated flask, and precultured for 3 days in the growth medium in a CO2 incubator.
(§2) The lysate was preserved at −80° C. until use.
(§3) The internal standard gene used was GAPDH gene.

[2] = system: GRP78; assay: GRP78 expression in neuronal cells under endoplasmic reticulum stress (RT-PCR); format: cell-based, Rat; conditions: pretreatment 24 h, tunicamycin 1.0 μM 24 h
Method: as §1, §2, §3

[3] = system: CHOP; assay: CHOP expression in adipocytes under endoplasmic reticulum stress (RT-PCR); format: cell-based, Human; conditions: pretreatment 24 h, tunicamycin 0.65 μM 24 h
Method: (§4) Adipocytes were prepared as follows. Normal human subcutaneous preadipocytes were reconstituted in a T75 flask using a growth medium (PBM-2 medium, Cat. No. PT-8002, Lonza, supplemented with 10% FBS, 2 mM L-glutamine, 50 μg/mL gentamycin, and 37 ng/mL amphotericin-B), and precultured for 3 days in a CO2 incubator (37° C., 5% CO2; the same holds true for the description below).
as §2, §3

[4] = system: GRP78; assay: GRP78 expression in adipocytes under endoplasmic reticulum stress (RT-PCR); format: cell-based, Human; conditions: pretreatment 24 h, tunicamycin 0.65 μM 24 h
Method: as §4, §2, §3

[5] = system: GRP78; assay: GRP78 expression in pancreatic cells (βTC6) under endoplasmic reticulum stress (RT-PCR); format: cell-based, Mouse; conditions: pretreatment 4 h, tunicamycin 0.16 μM 24 h
Method: as §2, §3

[6] = system: CHOP; assay: CHOP expression in pancreatic cells (βTC6) under endoplasmic reticulum stress (RT-PCR); format: cell-based, Mouse; conditions: pretreatment 4 h, tunicamycin 0.16 μM 24 h
Method: as §2, §3

[7] = system: GRP78; conditions: pretreatment 4 h, tunicamycin 0.65 μM 24 h
Method: (§5) Steviol was evaluated for its influence on endoplasmic reticulum stress in each type of cell by using endoplasmic reticulum stress markers CHOP and GRP78 as an index. The test cells used were neuronal cells (induced from PC12 cells), adipocytes (normal human subcutaneous preadipocytes, Cat. No. PT-5020, Lonza Group AG), hepatocytes (HepG2, Cat. No. JCRB1054, JCRB) and pancreatic cells (βTC6, ATCC® CRL-11506).
(§6) Hepatocytes were prepared as follow. HepG2 cells were seeded to a T75 flask and precultured for 1 day in a CO2 incubator using a growth medium (DMEM (high glucose, Cat. No. D5796, Sigma-Aldrich) supplemented with 10% FBS (Cat. No. 172012, Sigma-Aldrich), 1% penicillin-streptomycin (Cat. No. 09367-34, Nacalai Tesque, Inc.)).
(§7) 4PA (P21005, Sigma-Aldrich Co., LLC) was dissolved in a medium and then added at a predetermined concentration to a differentiation medium or a growth medium.
(§8) After the completion of endoplasmic reticulum stress induction treatment, the expression levels of CHOP and GRP78 were measured to evaluate the degree of endoplasmic reticulum stress. First, FasteLane lysate (RNA) was prepared for RNA extraction using FastLane Cell Probe kit (Cat. No. 216413, Qiagen N.V.). After removal of the medium, each well was washed by the addition of 125 μL of Buffer FCW and its immediate removal. Then, 50 μL of Cell processing mix was added to each well, followed by incubation at room temperature for 5 minutes to prepare FasteLane lysate. Next, the FasteLane lysate was transferred to a PCR tube and incubated at 75° C. for 5 minutes. The lysate was preserved at −80° C. until use.
(§9) Gene expression analysis was carried out by the following procedures. One Step real-time RT-PCR was performed with the composition of Table 8 using QuantiTect Probe RT-PCR Kit attached to FastLane Cell Probe kit.
(§10) RT-PCR reaction was performed under conditions of 50° C. for 30 minutes, 95° C. for 15 minutes, and (94° C. for 15 seconds and 60° C. for 60 seconds)×40 cycles. The internal standard gene used was GAPDH gene. A relative expression level was calculated by the ΔΔCt method. Significant difference among tunicamycin addition groups (vehicle group vs positive control group/steviol addition group) was tested by the Dunnett test.

[8] = system: CHOP; conditions: pretreatment 4 h, tunicamycin 0.65 μM 24 h
Method: as §5, §6, §7, §8, §9, §10

[9] = system: PC12 cells (clone HS); assay: Neurite elongation-promoting effect on PC12 cells (neurite length per cell, Operetta CLS); format: cell-based, Rat; conditions: positive control, 50 ng/mL NGF, 3 days, negative control=100%
Method: PC12 cells (clone HS) were precultured using a growth medium in the same manner as in Example 1. […] The cells thus cultured were subjected to cell membrane staining using Cell Membrane Stain attached to Neurite Outgrowth Staining Kit (Thermo Fisher Scientific Inc.) and nuclear staining using Hoechst 33342 (Cat. No. H3570). Specifically, the medium was replaced with 100 μL of a fixative and staining solution (prepared by adding a 1/1000 amount each of Cell Membrane Stain (1000×) and Hoechst 33342 and a 1/25 amount of a formaldehyde solution (Cat. No. 061-00416, FUJIFILM Wako Pure Chemical Corp.) to DPBS (++) (Cat. No. 14040133, Thermo Fisher Scientific Inc.)), followed by incubation for 20 minutes in a CO2 incubator (5% CO2, 37° C., humid). […] Photographing and quantitative analysis were carried out using Operetta CLS (Perkin Elmer, Inc.), and a neurite length per cell was calculated. Nine fields of view at the center of each well were photographed using a 10× objective lens. A test medium supplemented with 50 ng/mL NGF was used as a positive control, and a vehicle control composed of a differentiation medium supplemented with 0.1% DMSO (final concentration) was used as a negative control.

IGF-1: positive control, 100 ng/mL IGF-1 (Cat. No. SRP4121, Sigma-Aldrich)
Expression level of CHOP in neuronal cells (relative to GAPDH, untreated=1) ([1]; IGF-1 100 ng/mL): 5.97
Expression level of GRP78 in neuronal cells (relative to GAPDH, untreated=1) ([2]; IGF-1 100 ng/mL): 19.77

O=C(O)CCCc1ccccc1 [4PA, reference compound]
Expression level of CHOP in adipocytes (relative to GAPDH, untreated=1) ([3]; 4PA 0.1 mM): 3.52
Expression level of CHOP in adipocytes (relative to GAPDH, untreated=1) ([3]; 4PA 1 mM): 3.22
Expression level of GRP78 in adipocytes (relative to GAPDH, untreated=1) ([4]; 4PA 0.1 mM): 4.78
Expression level of GRP78 in adipocytes (relative to GAPDH, untreated=1) ([4]; 4PA 1 mM): 4.25
Expression level of GRP78 in pancreatic cells (relative to GAPDH, untreated=1) ([5]; 4PA 0.3 mM): 2.33
Expression level of GRP78 in pancreatic cells (relative to GAPDH, untreated=1) ([5]; 4PA 1 mM): 2.37
Expression level of GRP78 in pancreatic cells (relative to GAPDH, untreated=1) ([5]; 4PA 3 mM): 1.66
Expression level of GRP78 in pancreatic cells (relative to GAPDH, untreated=1) ([5]; 4PA 10 mM): 1.22
Expression level of CHOP in neuronal cells (relative to GAPDH, untreated=1) ([1]; 4PA 0.1 mM): 6.04
Expression level of CHOP in neuronal cells (relative to GAPDH, untreated=1) ([1]; 4PA 0.3 mM): 5.87
Expression level of GRP78 in neuronal cells (relative to GAPDH, untreated=1) ([2]; 4PA 0.1 mM): 19.72
Expression level of GRP78 in neuronal cells (relative to GAPDH, untreated=1) ([2]; 4PA 0.3 mM): 20.05
Expression level of CHOP in pancreatic cells (relative to GAPDH, untreated=1) ([6]; 4PA 0.3 mM): 2.53
Expression level of CHOP in pancreatic cells (relative to GAPDH, untreated=1) ([6]; 4PA 1 mM): 1.78
Expression level of CHOP in pancreatic cells (relative to GAPDH, untreated=1) ([6]; 4PA 3 mM): 1.71
Expression level of CHOP in pancreatic cells (relative to GAPDH, untreated=1) ([6]; 4PA 10 mM): 2.47
Expression level of GRP78 in hepatocytes (relative to GAPDH, untreated=1) ([7]; 4PA 0.1 mM): 2.82
Expression level of GRP78 in hepatocytes (relative to GAPDH, untreated=1) ([7]; 4PA 0.3 mM): 2.49
Expression level of GRP78 in hepatocytes (relative to GAPDH, untreated=1) ([7]; 4PA 1 mM): 1.96
Expression level of CHOP in hepatocytes (relative to GAPDH, untreated=1) ([8]; 4PA 0.1 mM): 3.23
Expression level of CHOP in hepatocytes (relative to GAPDH, untreated=1) ([8]; 4PA 0.3 mM): 2.79
Expression level of CHOP in hepatocytes (relative to GAPDH, untreated=1) ([8]; 4PA 1 mM): 2.13

NGF: positive control, 50 ng/mL NGF (Cat. No. 13257019, Thermo Fisher Scientific), differentiation inducer
Relative neurite length (%) [9]: 269.4%

From patent publication US20230064324A1, “NEW USES FOR STEVIOL” (SUNTORY HOLDINGS LIMITED, priority 2019, published 2023)
